Patent publication US20240374578A1, “USE OF MEDICINE FOR REDUCING IRON CONTENT IN BRAIN IN PREPARATION OF DRUG FOR TREATING AND/OR PREVENTING NEUROPSYCHIATRIC DISEASES” (SOOCHOW UNIVERSITY, priority 2022, published 2024)

Test system: morphine addiction in mice
Experiment: Morphine conditioned place preference scoring of mice
Format: in vivo, C57BL/6J mice
Settings: 6 h before morphine 20 mg/kg/day i.p., 7 days, vs morphine group

| SMILES | preference score on morphine-paired side (Deferiprone 13 mg/mL, 1 μL into dorsal hippocampus, FIG. 5) | preference score on morphine-paired side (Vadadustat 10 mg/kg/day i.p., FIG. 4) |
| --- | --- | --- |
| Cc1c(O)c(=O)ccn1C [Deferiprone, 3-hydroxy-1,2-dimethyl-4-(1H)-pyridone] | significantly reduced |  |
| O=C(O)CNC(=O)c1ncc(-c2cccc(Cl)c2)cc1O [Vadadustat] |  | significantly reduced |
